# Test results: the kinase profiling compilation of Christmann-Franck et al. (2016)
# Assays:
# Assay in all cases: radiometric filter-binding kinase assay
# [1] = system: AKT1 (human), P31749 [S473D]
# AURKA (human) = AURKA (human) (UniProt O14965)
# BRSK1 (human) = BRSK1 (human) (UniProt Q8TDC3)
# BRSK2 (human) = BRSK2 (human) (UniProt Q8IWQ3)
# BTK (human) = BTK (human) (UniProt Q06187)
# CaMK1 (human) = CaMK1 (human) (UniProt Q14012)
# DYRK2 (human) = DYRK2 (human) (UniProt Q92630)
# DYRK3 (human) = DYRK3 (human) (UniProt O43781); conditions: compound 1.0 µM
# EPHA2 (human) = EPHA2 (human) (UniProt P29317); conditions: compound 0.1 µM
# EPHB1 (human) = EPHB1 (human) (UniProt P54762)
# EPHB2 (human) = EPHB2 (human) (UniProt P29323)
# EPHB4 (human) = EPHB4 (human) (UniProt P54760)
# FLT1 (human) = FLT1 (human) (UniProt P17948)
# GCK (human) = GCK (human) (UniProt Q12851); conditions: compound 0.1 µM
# HIPK1 (human) = HIPK1 (human) (UniProt Q86Z02)
# HIPK2 (human) = HIPK2 (human) (UniProt Q9H2X6)
# INSR (human) = INSR (human) (UniProt P06213)
# JAK2 JH1 JH2 (human) = JAK2 JH1 JH2 (human) (UniProt O60674)
# MAP2K1 (human) = MAP2K1 (human) (UniProt Q02750)
# MAP3K1 (human) = MAP3K1 (human) (UniProt Q13233)
# MAP3K11 (human) = MAP3K11 (human) (UniProt Q16584)
# MAP3K5 (human) = MAP3K5 (human) (UniProt Q99683)
# MAPK10 (human) = MAPK10 (human) (UniProt P53779)
# MAPK11 (human) = MAPK11 (human) (UniProt Q15759)
# MAPK8 (human) = MAPK8 (human) (UniProt P45983)
# MAPK9 (human) = MAPK9 (human) (UniProt P45984); conditions: compound 1.0 µM
# MAPKAPK5 (human) = MAPKAPK5 (human) (UniProt Q8IW41)
# MARK3 (human) = MARK3 (human) (UniProt P27448)
# PIM1 (human) = PIM1 (human) (UniProt P11309)
# PRKCA (human) = PRKCA (human) (UniProt P17252)
# [2] = system: RPS6KB1 (human), P23443 [T412E]
# STK3 (human) = STK3 (human) (UniProt Q13188); conditions: compound 0.1 µM
# SYK (human) = SYK (human) (UniProt P43405)
# TAOK1 (human) = TAOK1 (human) (UniProt Q7L7X3)
# TBK1 (human) = TBK1 (human) (UniProt Q9UHD2)
# YES1 (human) = YES1 (human) (UniProt P07947)
# YES1 (human), sequence (P07947 whole entry, looked up): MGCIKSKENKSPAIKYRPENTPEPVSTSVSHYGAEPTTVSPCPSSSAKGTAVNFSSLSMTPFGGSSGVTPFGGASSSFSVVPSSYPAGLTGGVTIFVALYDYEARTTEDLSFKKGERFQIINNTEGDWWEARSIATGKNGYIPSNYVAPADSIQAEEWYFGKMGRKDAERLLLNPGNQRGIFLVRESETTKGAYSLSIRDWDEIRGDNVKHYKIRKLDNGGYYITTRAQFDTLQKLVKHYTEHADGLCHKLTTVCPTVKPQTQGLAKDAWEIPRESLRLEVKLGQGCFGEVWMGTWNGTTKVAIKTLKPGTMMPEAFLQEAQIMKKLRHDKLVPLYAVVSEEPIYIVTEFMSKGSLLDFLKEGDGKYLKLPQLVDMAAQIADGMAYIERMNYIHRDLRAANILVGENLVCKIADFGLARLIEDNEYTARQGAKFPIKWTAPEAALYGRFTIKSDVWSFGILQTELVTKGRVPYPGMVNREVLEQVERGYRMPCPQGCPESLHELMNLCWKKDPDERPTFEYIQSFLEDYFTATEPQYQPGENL
# AKT1 (human), P31749 [S473D], sequence (P31749 whole entry S473D, looked up): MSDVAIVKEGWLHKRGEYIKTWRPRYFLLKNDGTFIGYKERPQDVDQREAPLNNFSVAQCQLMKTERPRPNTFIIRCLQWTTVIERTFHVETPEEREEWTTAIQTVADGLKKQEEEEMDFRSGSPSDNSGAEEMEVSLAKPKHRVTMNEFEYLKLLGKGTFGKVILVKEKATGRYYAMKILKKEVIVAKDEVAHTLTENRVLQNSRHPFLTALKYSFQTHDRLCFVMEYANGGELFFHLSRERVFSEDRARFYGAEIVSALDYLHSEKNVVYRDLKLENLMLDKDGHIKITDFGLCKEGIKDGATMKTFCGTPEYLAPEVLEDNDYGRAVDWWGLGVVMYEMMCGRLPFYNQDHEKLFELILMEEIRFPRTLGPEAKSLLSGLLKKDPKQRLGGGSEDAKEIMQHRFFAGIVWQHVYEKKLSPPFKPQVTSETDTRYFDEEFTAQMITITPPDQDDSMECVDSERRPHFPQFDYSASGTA
# AURKA (human), sequence (O14965 whole entry, looked up): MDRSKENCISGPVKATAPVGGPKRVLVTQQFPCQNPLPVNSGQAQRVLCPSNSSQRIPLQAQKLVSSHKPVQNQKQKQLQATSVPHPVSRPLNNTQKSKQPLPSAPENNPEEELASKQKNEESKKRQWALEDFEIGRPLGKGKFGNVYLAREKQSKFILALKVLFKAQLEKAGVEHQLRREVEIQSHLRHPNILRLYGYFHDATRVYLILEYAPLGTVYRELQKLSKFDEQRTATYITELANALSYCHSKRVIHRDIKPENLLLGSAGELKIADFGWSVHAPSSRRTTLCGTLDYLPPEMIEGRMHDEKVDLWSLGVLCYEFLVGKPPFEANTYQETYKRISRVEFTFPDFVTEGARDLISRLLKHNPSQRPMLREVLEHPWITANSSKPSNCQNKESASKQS
# HIPK1 (human), sequence (Q86Z02 whole entry, looked up): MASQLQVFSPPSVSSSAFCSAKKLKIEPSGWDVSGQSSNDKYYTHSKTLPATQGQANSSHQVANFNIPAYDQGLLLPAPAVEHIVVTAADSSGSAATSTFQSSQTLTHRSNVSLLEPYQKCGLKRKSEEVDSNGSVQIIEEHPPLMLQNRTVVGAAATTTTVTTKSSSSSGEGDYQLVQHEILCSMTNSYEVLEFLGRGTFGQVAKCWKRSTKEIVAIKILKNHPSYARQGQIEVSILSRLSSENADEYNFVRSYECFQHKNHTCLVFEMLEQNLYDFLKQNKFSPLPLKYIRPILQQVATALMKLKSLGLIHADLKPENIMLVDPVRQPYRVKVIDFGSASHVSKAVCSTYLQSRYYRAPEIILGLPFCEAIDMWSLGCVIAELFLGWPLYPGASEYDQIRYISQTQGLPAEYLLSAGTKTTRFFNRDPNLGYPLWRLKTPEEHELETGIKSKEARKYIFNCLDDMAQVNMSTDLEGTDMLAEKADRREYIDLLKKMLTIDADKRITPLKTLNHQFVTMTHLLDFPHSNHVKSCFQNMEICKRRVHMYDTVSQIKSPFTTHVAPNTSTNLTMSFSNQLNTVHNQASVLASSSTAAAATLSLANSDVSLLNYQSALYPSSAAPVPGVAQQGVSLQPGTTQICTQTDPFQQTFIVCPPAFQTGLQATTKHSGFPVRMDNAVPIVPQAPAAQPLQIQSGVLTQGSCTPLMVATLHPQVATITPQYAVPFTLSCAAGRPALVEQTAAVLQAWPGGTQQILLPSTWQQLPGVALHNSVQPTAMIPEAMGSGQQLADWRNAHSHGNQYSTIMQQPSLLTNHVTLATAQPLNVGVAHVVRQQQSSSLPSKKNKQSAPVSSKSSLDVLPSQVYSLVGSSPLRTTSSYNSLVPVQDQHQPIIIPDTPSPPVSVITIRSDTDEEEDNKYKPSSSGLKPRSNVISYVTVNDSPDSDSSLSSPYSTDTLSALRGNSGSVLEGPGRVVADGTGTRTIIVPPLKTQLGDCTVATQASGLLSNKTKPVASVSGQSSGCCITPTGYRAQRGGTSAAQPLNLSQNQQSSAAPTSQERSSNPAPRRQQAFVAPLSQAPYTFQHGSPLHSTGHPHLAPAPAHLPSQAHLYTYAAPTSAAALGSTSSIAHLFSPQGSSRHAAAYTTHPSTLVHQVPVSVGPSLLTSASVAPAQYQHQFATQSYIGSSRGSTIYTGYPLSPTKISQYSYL
# CaMK1 (human), sequence (Q14012 whole entry, looked up): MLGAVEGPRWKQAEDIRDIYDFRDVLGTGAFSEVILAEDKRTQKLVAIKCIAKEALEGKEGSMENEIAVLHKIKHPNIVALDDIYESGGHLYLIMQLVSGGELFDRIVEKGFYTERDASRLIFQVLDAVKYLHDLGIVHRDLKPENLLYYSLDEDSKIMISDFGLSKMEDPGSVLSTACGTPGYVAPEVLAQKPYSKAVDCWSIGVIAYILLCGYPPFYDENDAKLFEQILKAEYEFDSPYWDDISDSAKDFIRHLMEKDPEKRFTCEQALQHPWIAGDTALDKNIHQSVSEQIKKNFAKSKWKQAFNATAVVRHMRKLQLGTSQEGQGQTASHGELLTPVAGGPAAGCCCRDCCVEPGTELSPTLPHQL
# HIPK2 (human), sequence (Q9H2X6 whole entry, looked up): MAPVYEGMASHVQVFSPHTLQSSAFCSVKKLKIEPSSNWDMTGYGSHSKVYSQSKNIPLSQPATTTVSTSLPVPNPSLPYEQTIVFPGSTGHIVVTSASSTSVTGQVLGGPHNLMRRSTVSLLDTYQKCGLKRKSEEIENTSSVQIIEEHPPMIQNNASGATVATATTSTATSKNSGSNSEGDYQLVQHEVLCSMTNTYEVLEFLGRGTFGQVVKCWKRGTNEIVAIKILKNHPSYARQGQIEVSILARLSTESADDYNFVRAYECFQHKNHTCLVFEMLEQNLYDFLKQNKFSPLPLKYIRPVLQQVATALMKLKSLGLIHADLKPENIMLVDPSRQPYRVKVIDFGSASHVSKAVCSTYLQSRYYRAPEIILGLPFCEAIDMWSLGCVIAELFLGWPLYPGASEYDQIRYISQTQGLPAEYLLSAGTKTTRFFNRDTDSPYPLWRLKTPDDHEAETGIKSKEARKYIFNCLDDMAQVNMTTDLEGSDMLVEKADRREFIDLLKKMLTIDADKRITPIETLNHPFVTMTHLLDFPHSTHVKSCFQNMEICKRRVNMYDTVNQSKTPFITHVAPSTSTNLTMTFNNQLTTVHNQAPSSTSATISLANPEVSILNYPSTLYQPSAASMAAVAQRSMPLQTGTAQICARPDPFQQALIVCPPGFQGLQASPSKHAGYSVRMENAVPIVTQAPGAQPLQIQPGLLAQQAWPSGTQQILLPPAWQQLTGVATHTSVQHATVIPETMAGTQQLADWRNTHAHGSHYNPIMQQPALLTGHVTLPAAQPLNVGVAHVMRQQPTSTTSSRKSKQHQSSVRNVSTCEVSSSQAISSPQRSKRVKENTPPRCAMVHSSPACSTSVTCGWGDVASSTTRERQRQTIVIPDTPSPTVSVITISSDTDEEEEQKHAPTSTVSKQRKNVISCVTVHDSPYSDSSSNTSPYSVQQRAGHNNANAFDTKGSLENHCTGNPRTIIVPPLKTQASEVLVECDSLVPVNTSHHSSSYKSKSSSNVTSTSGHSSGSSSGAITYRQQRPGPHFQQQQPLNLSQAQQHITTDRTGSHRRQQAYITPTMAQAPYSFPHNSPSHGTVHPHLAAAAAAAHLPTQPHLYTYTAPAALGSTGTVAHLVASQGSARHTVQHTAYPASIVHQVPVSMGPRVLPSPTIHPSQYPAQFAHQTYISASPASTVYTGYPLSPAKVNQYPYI
# MAP3K11 (human), sequence (Q16584 whole entry, looked up): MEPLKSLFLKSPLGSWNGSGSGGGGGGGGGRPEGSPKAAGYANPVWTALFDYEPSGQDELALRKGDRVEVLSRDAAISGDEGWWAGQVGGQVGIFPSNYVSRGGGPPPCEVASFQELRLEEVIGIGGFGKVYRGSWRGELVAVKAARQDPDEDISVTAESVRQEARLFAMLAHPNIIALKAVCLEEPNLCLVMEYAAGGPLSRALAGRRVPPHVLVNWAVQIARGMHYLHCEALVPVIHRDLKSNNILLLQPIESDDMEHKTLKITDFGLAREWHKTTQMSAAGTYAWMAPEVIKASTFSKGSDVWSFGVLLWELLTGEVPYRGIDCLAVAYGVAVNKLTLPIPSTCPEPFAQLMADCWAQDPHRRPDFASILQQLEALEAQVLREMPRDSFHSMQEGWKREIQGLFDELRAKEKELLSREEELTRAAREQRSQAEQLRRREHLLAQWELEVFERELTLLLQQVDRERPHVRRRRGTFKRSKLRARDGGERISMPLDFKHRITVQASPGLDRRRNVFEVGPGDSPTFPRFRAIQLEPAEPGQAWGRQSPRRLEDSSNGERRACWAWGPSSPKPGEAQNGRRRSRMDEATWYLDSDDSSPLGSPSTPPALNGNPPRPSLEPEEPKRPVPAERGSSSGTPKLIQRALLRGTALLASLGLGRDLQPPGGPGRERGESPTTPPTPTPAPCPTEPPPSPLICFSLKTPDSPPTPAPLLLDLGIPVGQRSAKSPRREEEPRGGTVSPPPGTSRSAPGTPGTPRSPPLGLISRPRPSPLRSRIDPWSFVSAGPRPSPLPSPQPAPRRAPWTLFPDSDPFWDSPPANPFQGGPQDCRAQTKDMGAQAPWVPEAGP
compound,measurement,setting,value
COc1ccc(-n2ncc3cnc(Nc4cc(OC)c(OC)c(OCCCN5CCN(C)CC5)c4)nc32)cc1,residual activity,[1]; compound 0.1 µM,99%
same,residual activity,[1]; compound 1.0 µM,89%
same,residual activity,AURKA (human); compound 0.1 µM,18%
same,residual activity,AURKA (human); compound 1.0 µM,3%
same,residual activity,BRSK1 (human); compound 0.1 µM,74%
same,residual activity,BRSK1 (human); compound 1.0 µM,17%
same,residual activity,BRSK2 (human); compound 0.1 µM,84%
same,residual activity,BRSK2 (human); compound 1.0 µM,35%
same,residual activity,BTK (human); compound 0.1 µM,22%
same,residual activity,BTK (human); compound 1.0 µM,14%
same,residual activity,CaMK1 (human); compound 0.1 µM,67%
same,residual activity,CaMK1 (human); compound 1.0 µM,26%
same,residual activity,DYRK2 (human); compound 0.1 µM,50%
same,residual activity,DYRK2 (human); compound 1.0 µM,16%
same,residual activity,DYRK3 (human),10%
same,residual activity,EPHA2 (human),28%
same,residual activity,EPHB1 (human); compound 0.1 µM,8%
same,residual activity,EPHB1 (human); compound 1.0 µM,3%
same,residual activity,EPHB2 (human); compound 0.1 µM,23%
same,residual activity,EPHB2 (human); compound 1.0 µM,6%
same,residual activity,EPHB4 (human); compound 0.1 µM,69%
same,residual activity,EPHB4 (human); compound 1.0 µM,3%
same,residual activity,FLT1 (human); compound 0.1 µM,5%
same,residual activity,FLT1 (human); compound 1.0 µM,2%
same,residual activity,GCK (human),29%
same,residual activity,HIPK1 (human); compound 0.1 µM,44%
same,residual activity,HIPK1 (human); compound 1.0 µM,17%
same,residual activity,HIPK2 (human); compound 0.1 µM,31%
same,residual activity,HIPK2 (human); compound 1.0 µM,10%
same,residual activity,INSR (human); compound 0.1 µM,79%
same,residual activity,INSR (human); compound 1.0 µM,21%
same,residual activity,JAK2 JH1 JH2 (human); compound 0.1 µM,4%
same,residual activity,JAK2 JH1 JH2 (human); compound 1.0 µM,3%
same,residual activity,MAP2K1 (human); compound 0.1 µM,40%
same,residual activity,MAP2K1 (human); compound 1.0 µM,13%
same,residual activity,MAP3K1 (human); compound 0.1 µM,103%
same,residual activity,MAP3K1 (human); compound 1.0 µM,92%
same,residual activity,MAP3K11 (human); compound 0.1 µM,15%
same,residual activity,MAP3K11 (human); compound 1.0 µM,8%
same,residual activity,MAP3K5 (human); compound 0.1 µM,99%
same,residual activity,MAP3K5 (human); compound 1.0 µM,77%
same,residual activity,MAPK10 (human); compound 0.1 µM,65%
same,residual activity,MAPK10 (human); compound 1.0 µM,39%
same,residual activity,MAPK11 (human); compound 0.1 µM,103%
same,residual activity,MAPK11 (human); compound 1.0 µM,95%
same,residual activity,MAPK8 (human); compound 0.1 µM,89%
same,residual activity,MAPK8 (human); compound 1.0 µM,38%
same,residual activity,MAPK9 (human),33%
same,residual activity,MAPKAPK5 (human); compound 0.1 µM,98%
same,residual activity,MAPKAPK5 (human); compound 1.0 µM,85%
same,residual activity,MARK3 (human); compound 0.1 µM,41%
same,residual activity,MARK3 (human); compound 1.0 µM,16%
same,residual activity,PIM1 (human); compound 0.1 µM,96%
same,residual activity,PIM1 (human); compound 1.0 µM,62%
same,residual activity,PRKCA (human); compound 0.1 µM,95%
same,residual activity,PRKCA (human); compound 1.0 µM,56%
same,residual activity,[2]; compound 0.1 µM,70%
same,residual activity,[2]; compound 1.0 µM,28%
same,residual activity,STK3 (human),78%
same,residual activity,SYK (human); compound 0.1 µM,58%
same,residual activity,SYK (human); compound 1.0 µM,13%
same,residual activity,TAOK1 (human); compound 0.1 µM,95%
same,residual activity,TAOK1 (human); compound 1.0 µM,74%
same,residual activity,TBK1 (human); compound 0.1 µM,14%
same,residual activity,TBK1 (human); compound 1.0 µM,8%
same,residual activity,YES1 (human); compound 0.1 µM,16%
same,residual activity,YES1 (human); compound 1.0 µM,7%
